{"source": "patent US8613914B2", "about": "“Peptidomimetic sulfamide compounds and antiviral uses thereof” (Novartis AG, priority 2009, dated 2013)", "data": [{"target": "HCV NS3-4A serine protease (full-length NS3-4A protein) (Hepatitis C virus genotype 1a (isolate 1) (HCV), UniProt P26664)", "sequence (P26664 1027-1657)": "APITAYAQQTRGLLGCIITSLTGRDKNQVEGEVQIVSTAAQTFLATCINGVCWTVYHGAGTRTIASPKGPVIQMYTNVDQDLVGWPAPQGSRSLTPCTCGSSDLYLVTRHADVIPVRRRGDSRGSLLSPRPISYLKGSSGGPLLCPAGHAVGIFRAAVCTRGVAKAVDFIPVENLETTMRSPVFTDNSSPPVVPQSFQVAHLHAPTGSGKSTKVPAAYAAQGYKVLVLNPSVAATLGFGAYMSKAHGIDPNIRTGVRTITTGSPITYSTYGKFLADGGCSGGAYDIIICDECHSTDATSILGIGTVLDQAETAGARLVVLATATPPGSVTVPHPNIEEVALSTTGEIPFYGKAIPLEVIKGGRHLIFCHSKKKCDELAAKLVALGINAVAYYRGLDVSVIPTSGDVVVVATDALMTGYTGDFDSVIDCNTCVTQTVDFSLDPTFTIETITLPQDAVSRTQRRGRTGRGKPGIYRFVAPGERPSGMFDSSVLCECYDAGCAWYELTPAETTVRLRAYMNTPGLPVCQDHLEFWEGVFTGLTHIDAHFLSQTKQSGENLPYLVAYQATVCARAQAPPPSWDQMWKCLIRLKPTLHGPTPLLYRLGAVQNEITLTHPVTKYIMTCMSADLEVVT", "sequence (P26664 1658-1711 partner)": "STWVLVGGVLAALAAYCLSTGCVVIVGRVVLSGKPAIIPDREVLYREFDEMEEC", "experiment": "HCV NS3-4A protease assay", "type": "biochemical, HCV genotype 1a", "conditions": "strain HCV-1, fluorogenic peptide substrate, read-out: Protease assay Ex. 12 IC50", "description": "The inhibitory activity of certain compounds of Table A against HCV NS3-4A serine protease is determined in a homogenous assay using the full-length NS3-4A protein (genotype 1a, strain HCV-1) and a commercially available internally-quenched fluorogenic peptide substrate as described by Taliani, M., et al. 1996 Anal. Biochem. 240:60-67, which is incorporated by reference in its entirety.", "units": {"IC50": "nM"}, "values": [{"compound": "CC[C@@H]1C[C@]1(NC(=O)[C@@H]1C[C@@]2(CN1C(=O)[C@@H](NC(=O)[C@@H](NC(=O)[C@@H]1CCCN1CC)C1CCCCC1)C(C)(C)C)C(C)(C)C21CCC1)C(=O)NS(=O)(=O)N1CCCC1", "note": "[Compound 99, (5R,8S)-7-[(2S)-2-{[(2S)-2-cyclohexyl-2-({[(2S)-1-ethylpyrrolidin-2-yl]carbonyl}amino)acetyl]amino}-3,3-dimethylbutanoyl]-N-{(1R,2R)-2-ethyl-1-[(pyrrolidin-1-ylsulfonyl)carbamoyl]cyclopropyl}-10,10-dimethyl-7-azadispiro[3.0.4.1]decane-8-carboxamide]", "IC50": 20}, {"compound": "C=C[C@@H]1C[C@]1(NC(=O)[C@@H]1C[C@@]2(CN1C(=O)[C@@H](NC(=O)[C@@H](NC(=O)[C@@H]1CCCN1CC)c1ccccc1)C(C)(C)C)C(C)(C)C21CCC1)C(=O)NS(=O)(=O)N1CCCC1", "note": "[Compound 102, (5R,8S)-7-[(2S)-2-{[(2S)-2-({[(2S)-1-ethylpyrrolidin-2-yl]carbonyl}amino)-2-phenylacetyl]amino}-3,3-dimethylbutanoyl]-10,10-dimethyl-N-{(1R,2S)-1-[(pyrrolidin-1-ylsulfonyl)carbamoyl]-2-vinylcyclopropyl}-7-azadispiro[3.0.4.1]decane-8-carboxamide]", "IC50": 8}, {"compound": "C=C[C@@H]1C[C@]1(NC(=O)[C@@H]1C[C@@]2(CN1C(=O)[C@@H](NC(=O)[C@@H](NC(=O)[C@@H]1CCCCN1CC)c1ccccc1)C(C)(C)C)C(C)(C)C21CCC1)C(=O)NS(=O)(=O)N1CCCC1", "note": "[Compound 103, (5R,8S)-7-[(2S)-2-{[(2S)-2-({[(2S)-1-ethylpiperidin-2-yl]carbonyl}amino)-2-phenylacetyl]amino}-3,3-dimethylbutanoyl]-10,10-dimethyl-N-{(1R,2S)-1-[(pyrrolidin-1-ylsulfonyl)carbamoyl]-2-vinylcyclopropyl}-7-azadispiro[3.0.4.1]decane-8-carboxamide]", "IC50": 20}, {"compound": "C=C[C@@H]1C[C@]1(NC(=O)[C@@H]1C[C@@]2(CN1C(=O)[C@@H](NC(=O)[C@@H](NC(=O)[C@@H]1CCCCN1C(C)C)c1ccccc1)C(C)(C)C)C(C)(C)C21CCC1)C(=O)NS(=O)(=O)N1CCCC1", "note": "[Compound 104, (5R,8S)-7-[(2S)-2-{[(2S)-2-({[(2S)-1-isopropylpiperidin-2-yl]carbonyl}amino)-2-phenylacetyl]amino}-3,3-dimethylbutanoyl]-10,10-dimethyl-N-{(1R,2S)-1-[(pyrrolidin-1-ylsulfonyl)carbamoyl]-2-vinylcyclopropyl}-7-azadispiro[3.0.4.1]decane-8-carboxamide]", "IC50": 15}, {"compound": "C=C[C@@H]1C[C@]1(NC(=O)[C@@H]1C[C@@]2(CN1C(=O)[C@@H](NC(=O)[C@@H](NC(=O)[C@@H]1CCC(F)(F)CN1C(C)C)C1CCCCC1)C(C)(C)C)C(C)(C)C21CCC1)C(=O)NS(=O)(=O)N1CCCC1", "note": "[Compound 105, (5R,8S)-7-[(2S)-2-{[(2S)-2-cyclohexyl-2-({[(2S)-5,5-difluoro-1-isopropylpiperidin-2-yl]carbonyl}amino)acetyl]amino}-3,3-dimethylbutanoyl]-10,10-dimethyl-N-{(1R,2S)-1-[(pyrrolidin-1-ylsulfonyl)carbamoyl]-2-vinylcyclopropyl}-7-azadispiro[3.0.4.1]decane-8-carboxamide]", "IC50": 45}, {"compound": "C=C[C@@H]1C[C@]1(NC(=O)[C@@H]1C[C@@]2(CN1C(=O)[C@@H](NC(=O)[C@@H](NC(=O)[C@@H]1CCCCN1C(C)C)C1CCCCC1)C(C)(C)C)C(C)(C)C21CCC1)C(=O)NS(=O)(=O)N(CC)CCC", "note": "[Compound 106, (5R,8S)-7-[(2S)-2-{[(2S)-2-cyclohexyl-2-({[(2S)-1-isopropylpiperidin-2-yl]carbonyl}amino)acetyl]amino}-3,3-dimethylbutanoyl]-N-[(1R,2S)-1-({[ethyl(propyl)amino]sulfonyl}carbamoyl)-2-vinylcyclopropyl]-10,10-dimethyl-7-azadispiro[3.0.4.1]decane-8-carboxamide]", "IC50": 10}, {"compound": "C=C[C@@H]1C[C@]1(NC(=O)[C@@H]1C[C@@]2(CN1C(=O)[C@@H](NC(=O)[C@@H](NC(=O)[C@@H]1CCCN1CC)C1CCCCC1)C(C)(C)C)C(C)(C)C21CCC1)C(=O)NS(=O)(=O)N(CC)CCC", "note": "[Compound 107, (5R,8S)-7-[(2S)-2-{[(2S)-2-cyclohexyl-2-({[(2S)-1-ethylpyrrolidin-2-yl]carbonyl}amino)acetyl]amino}-3,3-dimethylbutanoyl]-N-[(1R,2S)-1-({[ethyl(propyl)amino]sulfonyl}carbamoyl)-2-vinylcyclopropyl]-10,10-dimethyl-7-azadispiro[3.0.4.1]decane-8-carboxamide]", "IC50": 9}, {"compound": "C=C[C@@H]1C[C@]1(NC(=O)[C@@H]1C[C@@]2(CN1C(=O)[C@@H](NC(=O)[C@@H](NC(=O)[C@@H]1CCCCN1C(C)C)C1CCCCC1)C(C)(C)C)C(C)(C)C21CCC1)C(=O)NS(=O)(=O)N(C)C(C)C", "note": "[Compound 108, (5R,8S)-7-[(2S)-2-{[(2S)-2-cyclohexyl-2-({[(2S)-1-isopropylpiperidin-2-yl]carbonyl}amino)acetyl]amino}-3,3-dimethylbutanoyl]-N-[(1R,2S)-1-({[isopropyl(methyl)amino]sulfonyl}carbamoyl)-2-vinylcyclopropyl]-10,10-dimethyl-7-azadispiro[3.0.4.1]decane-8-carboxamide]", "IC50": 6}, {"compound": "C=C[C@@H]1C[C@]1(NC(=O)[C@@H]1C[C@@]2(CN1C(=O)[C@@H](NC(=O)[C@@H](NC(=O)[C@@H]1CCCCN1C(C)C)C1CCCCC1)C(C)(C)C)C(C)(C)C21CCC1)C(=O)NS(=O)(=O)N(CC)C(C)C", "note": "[Compound 110, (5R,8S)-7-[(2S)-2-{[(2S)-2-cyclohexyl-2-({[(2S)-1-isopropylpiperidin-2-yl]carbonyl}amino)acetyl]amino}-3,3-dimethylbutanoyl]-N-[(1R,2S)-1-({[ethyl(isopropyl)amino]sulfonyl}carbamoyl)-2-vinylcyclopropyl]-10,10-dimethyl-7-azadispiro[3.0.4.1]decane-8-carboxamide]", "IC50": 8}, {"compound": "C=C[C@@H]1C[C@]1(NC(=O)[C@@H]1C[C@@]2(CN1C(=O)[C@@H](NC(=O)[C@@H](NC(=O)[C@@H]1CCCN1CC)C1CCCCC1)C(C)(C)C)C(C)(C)C21CCC1)C(=O)NS(=O)(=O)N(CC)C(C)C", "note": "[Compound 111, (5R,8S)-7-[(2S)-2-{[(2S)-2-cyclohexyl-2-({[(2S)-1-ethylpyrrolidin-2-yl]carbonyl}amino)acetyl]amino}-3,3-dimethylbutanoyl]-N-[(1R,2S)-1-({[ethyl(isopropyl)amino]sulfonyl}carbamoyl)-2-vinylcyclopropyl]-10,10-dimethyl-7-azadispiro[3.0.4.1]decane-8-carboxamide]", "IC50": 8}, {"compound": "C=C[C@@H]1C[C@]1(NC(=O)[C@@H]1C[C@@]2(CN1C(=O)[C@@H](NC(=O)[C@@H](NC(=O)[C@@H]1CCCCN1C(C)C)C1CCCCC1)C(C)(C)C)C(C)(C)C21CCC1)C(=O)NS(=O)(=O)N(C)CCC", "note": "[Compound 112, (5R,8S)-7-[(2S)-2-{[(2S)-2-cyclohexyl-2-({[(2S)-1-isopropylpiperidin-2-yl]carbonyl}amino)acetyl]amino}-3,3-dimethylbutanoyl]-10,10-dimethyl-N-[(1R,2S)-1-({[methyl(propyl)amino]sulfonyl}carbamoyl)-2-vinylcyclopropyl]-7-azadispiro[3.0.4.1]decane-8-carboxamide]", "IC50": 1.4}]}]}
